Measured values published in patent US9340555B2, “Compounds as tyrosine kinase modulators” (Allergan, Inc., priority 2009, dated 2016).

What was measured:
[1] = biological target: human VEGF receptor (VEGFR-2) (Homo sapiens (Human), UniProt P35968); test: VEGFR2 Kinase Assay (Enzymic VEGFR2); format: biochemical; settings: His-VEGFR-2 cytoplasmic domain, 3.6 µM ATP
Description: VEGFR2 Kinase Assay The cytoplasmic domain of the human VEGF receptor (VEGFR-2) was expressed as a Histidine-tagged fusion protein following infection of insect cells using an His engineered baculovirus. […] Kinase assays were performed in 96 well microtiter plates that were coated overnight with 30 µg of poly-Glu-[…]:1) in 10 mM Phosphate Buffered Saline (PBS), pH 7.2-7.4. The plates were incubated with 1% BSA and then washed four times with PBS prior to starting the reaction. […] Reactions were initiated by the addition 0.5 ng of purified protein. Following a ten minute incubation at 25° C., the reactions were washed four times with PBS containing 0.05% Tween-20. 100 µl of a monoclonal anti-phosphotyrosine antibody-peroxidase conjugate was diluted 1:10000 in PBS-Tween-20 and added to the wells for 30 minutes. Following four washes with PBS-Tween-20, 100 µl of 0-phenylenediamine Dihydrochloride in Phosphate-citrate buffer, containing urea hydrogen peroxide, was added to the wells for 7 minutes as a colorimetric substrate for the peroxidase. […] IC50 values for compound inhibition were calculated directly from graphs of optical density (arbitrary units) versus compound concentration following subtraction of blank values.

VEGFR1 = VEGFR1 (Homo sapiens (Human), UniProt P17948); test: Enzymic VEGFR1; format: biochemical
Chain of VEGFR1 (P17948 27-1338, species assumed): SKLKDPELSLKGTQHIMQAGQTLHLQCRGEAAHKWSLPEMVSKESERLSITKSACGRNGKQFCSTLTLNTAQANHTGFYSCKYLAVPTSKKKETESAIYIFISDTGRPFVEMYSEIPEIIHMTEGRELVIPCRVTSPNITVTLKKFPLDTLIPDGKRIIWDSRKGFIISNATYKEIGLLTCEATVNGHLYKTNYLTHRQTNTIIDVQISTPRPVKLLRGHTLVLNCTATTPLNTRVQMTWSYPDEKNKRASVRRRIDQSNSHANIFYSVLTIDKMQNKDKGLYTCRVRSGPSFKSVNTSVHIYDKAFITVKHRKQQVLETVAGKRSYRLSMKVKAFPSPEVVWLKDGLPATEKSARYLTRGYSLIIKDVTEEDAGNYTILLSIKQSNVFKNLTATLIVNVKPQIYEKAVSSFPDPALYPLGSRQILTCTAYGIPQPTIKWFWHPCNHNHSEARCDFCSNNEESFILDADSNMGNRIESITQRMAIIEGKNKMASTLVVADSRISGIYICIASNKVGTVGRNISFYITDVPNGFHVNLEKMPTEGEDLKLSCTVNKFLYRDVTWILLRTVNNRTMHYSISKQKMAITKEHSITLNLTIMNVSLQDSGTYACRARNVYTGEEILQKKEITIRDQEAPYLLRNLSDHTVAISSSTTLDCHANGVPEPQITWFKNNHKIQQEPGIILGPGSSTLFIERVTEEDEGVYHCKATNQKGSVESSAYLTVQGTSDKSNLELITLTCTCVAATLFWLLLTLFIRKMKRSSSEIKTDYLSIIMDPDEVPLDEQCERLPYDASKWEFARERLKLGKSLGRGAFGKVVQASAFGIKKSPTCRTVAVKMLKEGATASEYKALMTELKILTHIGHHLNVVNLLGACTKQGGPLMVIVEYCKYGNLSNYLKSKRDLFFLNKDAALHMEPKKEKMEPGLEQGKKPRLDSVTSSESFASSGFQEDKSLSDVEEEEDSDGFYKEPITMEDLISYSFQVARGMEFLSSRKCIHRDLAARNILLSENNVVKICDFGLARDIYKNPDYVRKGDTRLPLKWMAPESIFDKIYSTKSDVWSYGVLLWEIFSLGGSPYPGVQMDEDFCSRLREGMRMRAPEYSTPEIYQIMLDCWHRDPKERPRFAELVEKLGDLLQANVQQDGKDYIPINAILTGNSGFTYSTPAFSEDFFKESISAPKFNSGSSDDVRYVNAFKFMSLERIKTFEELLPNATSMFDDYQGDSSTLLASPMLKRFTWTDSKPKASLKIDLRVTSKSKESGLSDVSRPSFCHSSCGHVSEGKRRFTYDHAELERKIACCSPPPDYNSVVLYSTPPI

PDGFRβ = PDGFRβ (Homo sapiens (Human), UniProt P09619); test: Enzymic PDGFRβ; format: biochemical
Chain of PDGFRβ (P09619 33-1106, species assumed): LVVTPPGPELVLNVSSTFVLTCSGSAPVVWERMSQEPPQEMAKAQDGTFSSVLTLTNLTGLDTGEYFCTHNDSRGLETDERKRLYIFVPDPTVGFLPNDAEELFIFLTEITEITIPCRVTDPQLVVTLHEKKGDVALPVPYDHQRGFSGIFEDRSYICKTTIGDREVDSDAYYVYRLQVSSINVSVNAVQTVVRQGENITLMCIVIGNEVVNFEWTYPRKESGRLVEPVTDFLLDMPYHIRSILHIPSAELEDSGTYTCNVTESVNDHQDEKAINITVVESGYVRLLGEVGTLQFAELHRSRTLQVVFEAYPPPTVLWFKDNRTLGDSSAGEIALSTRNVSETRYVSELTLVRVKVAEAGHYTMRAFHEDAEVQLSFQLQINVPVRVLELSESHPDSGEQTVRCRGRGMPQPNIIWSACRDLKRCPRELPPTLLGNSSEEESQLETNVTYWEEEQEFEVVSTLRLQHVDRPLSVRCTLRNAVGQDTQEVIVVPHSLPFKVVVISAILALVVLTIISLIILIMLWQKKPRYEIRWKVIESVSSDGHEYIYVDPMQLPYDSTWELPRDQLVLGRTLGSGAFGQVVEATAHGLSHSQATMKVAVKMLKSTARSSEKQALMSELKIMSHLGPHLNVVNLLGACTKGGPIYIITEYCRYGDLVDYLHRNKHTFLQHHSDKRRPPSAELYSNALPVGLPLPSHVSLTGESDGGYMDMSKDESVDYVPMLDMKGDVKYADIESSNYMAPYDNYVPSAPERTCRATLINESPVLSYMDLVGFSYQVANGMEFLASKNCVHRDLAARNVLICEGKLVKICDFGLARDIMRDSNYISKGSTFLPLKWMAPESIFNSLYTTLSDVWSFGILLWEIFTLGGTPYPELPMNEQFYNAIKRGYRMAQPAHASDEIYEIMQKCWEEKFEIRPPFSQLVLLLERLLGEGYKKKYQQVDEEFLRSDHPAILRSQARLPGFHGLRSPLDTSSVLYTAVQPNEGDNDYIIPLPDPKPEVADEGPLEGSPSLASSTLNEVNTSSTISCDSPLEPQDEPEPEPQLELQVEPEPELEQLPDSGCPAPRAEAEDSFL

VEGFR2 = VEGFR2 (Homo sapiens (Human), UniProt P35968); test: VEGF Stimulated Ca++ Signal In Vitro (Cellular VEGFR2, FLIPR); format: cell-based; settings: HUVEC, VEGF stimulation (5 ng/mL), intracellular calcium
Chain of VEGFR2 (P35968 20-1356): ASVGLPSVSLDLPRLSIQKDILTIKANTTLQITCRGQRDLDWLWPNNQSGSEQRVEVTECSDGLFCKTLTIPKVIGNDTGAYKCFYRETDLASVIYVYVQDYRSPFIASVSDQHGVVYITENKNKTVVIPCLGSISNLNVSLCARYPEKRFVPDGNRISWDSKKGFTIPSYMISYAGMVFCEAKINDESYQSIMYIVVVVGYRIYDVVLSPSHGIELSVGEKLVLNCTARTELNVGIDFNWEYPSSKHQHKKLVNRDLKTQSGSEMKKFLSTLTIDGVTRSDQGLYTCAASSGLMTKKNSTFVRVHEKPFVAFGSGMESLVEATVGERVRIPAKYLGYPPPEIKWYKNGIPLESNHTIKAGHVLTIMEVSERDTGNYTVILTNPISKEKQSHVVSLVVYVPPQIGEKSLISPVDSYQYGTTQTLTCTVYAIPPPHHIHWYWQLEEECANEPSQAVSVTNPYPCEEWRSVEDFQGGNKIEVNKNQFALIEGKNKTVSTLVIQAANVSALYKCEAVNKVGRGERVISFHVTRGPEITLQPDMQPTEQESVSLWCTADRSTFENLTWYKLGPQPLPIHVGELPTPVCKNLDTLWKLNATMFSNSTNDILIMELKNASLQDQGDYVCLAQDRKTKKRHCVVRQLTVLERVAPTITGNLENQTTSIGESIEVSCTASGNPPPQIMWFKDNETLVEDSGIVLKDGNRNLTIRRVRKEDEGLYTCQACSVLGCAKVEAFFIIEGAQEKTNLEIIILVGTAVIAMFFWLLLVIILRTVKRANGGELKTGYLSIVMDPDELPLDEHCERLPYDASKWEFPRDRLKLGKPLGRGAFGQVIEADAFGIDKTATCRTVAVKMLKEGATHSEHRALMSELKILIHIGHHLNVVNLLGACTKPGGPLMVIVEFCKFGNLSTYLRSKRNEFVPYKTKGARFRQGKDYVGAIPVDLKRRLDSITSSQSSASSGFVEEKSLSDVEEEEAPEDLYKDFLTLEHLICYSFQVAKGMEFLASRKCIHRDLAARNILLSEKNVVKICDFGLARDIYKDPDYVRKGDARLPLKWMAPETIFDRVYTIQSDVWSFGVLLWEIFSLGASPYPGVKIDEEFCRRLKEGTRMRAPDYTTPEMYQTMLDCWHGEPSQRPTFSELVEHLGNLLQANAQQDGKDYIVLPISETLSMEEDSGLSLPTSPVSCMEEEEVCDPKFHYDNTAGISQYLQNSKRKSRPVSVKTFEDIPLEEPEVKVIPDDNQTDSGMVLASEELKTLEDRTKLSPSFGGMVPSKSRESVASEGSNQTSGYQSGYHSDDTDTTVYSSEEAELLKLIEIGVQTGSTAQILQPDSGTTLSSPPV

Chain of human VEGF receptor (VEGFR-2) (P35968 786-1356): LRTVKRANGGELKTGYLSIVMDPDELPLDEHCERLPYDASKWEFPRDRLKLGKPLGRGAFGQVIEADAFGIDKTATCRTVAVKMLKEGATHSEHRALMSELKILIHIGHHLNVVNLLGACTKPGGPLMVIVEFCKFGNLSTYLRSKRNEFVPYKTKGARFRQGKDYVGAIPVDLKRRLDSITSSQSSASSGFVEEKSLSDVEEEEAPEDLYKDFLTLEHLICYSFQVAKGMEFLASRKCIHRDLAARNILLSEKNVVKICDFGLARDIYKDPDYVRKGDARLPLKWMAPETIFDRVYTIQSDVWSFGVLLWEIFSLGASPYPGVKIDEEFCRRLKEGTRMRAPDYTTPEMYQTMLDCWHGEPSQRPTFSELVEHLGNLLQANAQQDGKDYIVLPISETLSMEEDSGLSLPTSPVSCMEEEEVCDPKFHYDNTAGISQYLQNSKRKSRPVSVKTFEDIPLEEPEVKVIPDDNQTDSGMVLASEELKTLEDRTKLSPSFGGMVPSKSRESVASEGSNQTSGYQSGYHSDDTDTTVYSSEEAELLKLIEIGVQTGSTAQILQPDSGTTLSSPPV

| Structure (SMILES) | IC50 [1] | IC50 (VEGFR1) | IC50 (PDGFRβ) | IC50 (VEGFR2) |
| --- | --- | --- | --- | --- |
| Cc1ccc(F)c(NC(=O)Nc2ccc(Oc3ccnc4cc(C(=O)NCCCN5CCOC(CO)C5)sc34)cc2)c1 (stereo not drawn) [Example 16, 7-[4-({[(2-fluoro-5-methylphenyl)amino]carbonyl}amino)phenoxy]-N-{3-[2-(hydroxymethyl)morpholin-4-yl]propyl}thieno[3,2-b]pyridine-2-carboxamide] | 7 nM | 10 nM | 15 nM | – |
| COC(=O)CNCCCNC(=O)c1cc2nccc(Oc3ccc(NC(=O)Nc4cc(C)ccc4F)c(F)c3)c2s1 [Example 25, methyl ({3-[({7-[3-fluoro-4-({[(2-fluoro-5-methylphenyl)amino]carbonyl}amino)phenoxy]thieno[3,2-b]pyridin-2-yl}carbonyl)amino]propyl}amino)acetate] | 5 nM | 8 nM | 11 nM | – |
| COC(=O)CN(CCCNC(=O)c1cc2nccc(Oc3ccc(NC(=O)Nc4cc(C)ccc4F)c(F)c3)c2s1)CC(=O)OC [Example 26, dimethyl 2,2′-({3-[({7-[3-fluoro-4-({[(2-fluoro-5-methylphenyl)amino]carbonyl}amino)phenoxy]thieno[3,2-b]pyridin-2-yl}carbonyl)amino]propyl}imino)diacetate] | 5 nM | 10 nM | 12 nM | – |
| COC(=O)CN(CCNC(=O)c1cc2nccc(Oc3ccc(NC(=O)Nc4cc(C)ccc4F)c(F)c3)c2s1)CC(=O)OC [Example 27, dimethyl 2,2′-({2-[({7-[3-fluoro-4-({[(2-fluoro-5-methylphenyl)amino]carbonyl}amino)phenoxy]thieno[3,2-b]pyridin-2-yl}carbonyl)amino]ethyl}imino)diacetate] | 16 nM | 11 nM | 17 nM | – |
| COC(=O)C1CCN(C(=O)c2cc3nccc(Oc4ccc(NC(=O)Nc5cc(C)ccc5F)c(F)c4)c3s2)C1 (stereo not drawn) [Example 28, methyl 1-({7-[3-fluoro-4-({[(2-fluoro-5-methylphenyl)amino]carbonyl}amino)phenoxy]thieno[3,2-b]pyridin-2-yl}carbonyl)pyrrolidine-3-carboxylate] | 5 nM | 8 nM | 17 nM | – |
| CCOC(=O)CN1CCN(C(=O)CN2CCN(C(=O)c3cc4nccc(Oc5ccc(NC(=O)Nc6cc(C)ccc6F)c(F)c5)c4s3)CC2)CC1 [Example 29, ethyl (4-{[4-({7-[3-fluoro-4-({[(2-fluoro-5-methylphenyl)amino]carbonyl}amino)phenoxy]thieno[3,2-b]pyridin-2-yl}carbonyl)piperazin-1-yl]acetyl}piperazin-1-yl)acetate] | 5 nM | 10 nM | 13 nM | – |
| CCOC(=O)CN1CCN(C(=O)c2cc3nccc(Oc4ccc(NC(=O)Nc5cc(C)ccc5F)c(F)c4)c3s2)CC1 [Example 30, ethyl [4-({7-[3-fluoro-4-({[(2-fluoro-5-methylphenyl)amino]carbonyl}amino)phenoxy]thieno[3,2-b]pyridin-2-yl}carbonyl)piperazin-1-yl]acetate] | 7 nM | 112 nM | 17 nM | – |
| Cc1ccc(F)c(NC(=O)Nc2ccc(Oc3ccnc4cc(C(=O)NCCCN5CCCC(CO)C5)sc34)cc2F)c1 (stereo not drawn) [Example 36, 7-[3-fluoro-4-({[(2-fluoro-5-methylphenyl)amino]carbonyl}amino)phenoxy]-N-{3-[3-(hydroxymethyl)piperidin-1-yl]propyl}thieno[3,2-b]pyridine-2-carboxamide] | 7 nM | 8 nM | – | – |
| CCOC(=O)CCCNC(=O)c1cc2nccc(Oc3ccc(NC(=O)Nc4cc(C)ccc4F)cc3)c2s1 [Example 56, ethyl 4-[({7-[4-({[(2-fluoro-5-methylphenyl)amino]carbonyl}amino)phenoxy]thieno[3,2-b]pyridin-2-yl}carbonyl)amino]butanoate] | 20 nM | 16 nM | – | – |
| Cc1ccc(F)c(NC(=O)Nc2ccc(Oc3ccnc4cc(C(=O)NCCCC(=O)O)sc34)cc2F)c1 [Example 64, 4-[({7-[3-fluoro-4-({[(2-fluoro-5-methylphenyl)amino]carbonyl}amino)phenoxy]thieno[3,2-b]pyridin-2-yl}carbonyl)amino]butanoic acid] | 13 nM | 7 nM | – | – |
| Cc1ccc(F)c(NC(=O)Nc2ccc(Oc3ccnc4cc(C(=O)NCCCN5CCCCC5)sc34)cc2)c1 [Example 66, 7-[4-({[(2-fluoro-5-methylphenyl)amino]carbonyl}amino)phenoxy]-N-(3-piperidin-1-ylpropyl)thieno[3,2-b]pyridine-2-carboxamide] | 4 nM | – | 16 nM | 16 nM |
| Cc1ccc(F)c(NC(=O)Nc2ccc(Oc3ccnc4cc(C(=O)NCCCN5CCN(C)CC5)sc34)cc2)c1 [Example 67, 7-[4-({[(2-fluoro-5-methylphenyl)amino]carbonyl}amino)phenoxy]-N-[3-(4-methylpiperazin-1-yl)propyl]thieno[3,2-b]pyridine-2-carboxamide] | 2 nM | – | 9 nM | 2 nM |
| Cc1ccc(F)c(NC(=O)Nc2ccc(Oc3ccnc4cc(C(=O)NCCCN5CCCC5)sc34)cc2)c1 [Example 68, 7-[4-({[(2-fluoro-5-methylphenyl)amino]carbonyl}amino)phenoxy]-N-(3-pyrrolidin-1-ylpropyl)thieno[3,2-b]pyridine-2-carboxamide] | 6 nM | – | 16 nM | 20 nM |
| Cc1ccoc1C(=O)Nc1cccc(Oc2ccnc3cc(C(=O)O)sc23)c1 [Example 72, 7-{3-[(3-methyl-2-furoyl)amino]phenoxy}thieno[3,2-b]pyridine-2-carboxylic acid] | 39 nM | – | 920 nM | 162 nM |
| Cc1ccoc1C(=O)Nc1cccc(Oc2ccnc3cc(C(=O)NO)sc23)c1 [Example 75, N-hydroxy-7-{3-[(3-methyl-2-furoyl)amino]phenoxy}thieno[3,2-b]pyridine-2-carboxamide] | 11 nM | – | 277 nM | 16 nM |
| Cc1ccc(F)c(NC(=O)c2cccc(Oc3ccnc4cc(C(=O)O)sc34)c2)c1 [Example 84, 7-(3-{[(2-fluoro-5-methylphenyl)amino]carbonyl}phenoxy)thieno[3,2-b]pyridine-2-carboxylic acid] | 20 nM | – | 223 nM | 87 nM |
| CCNC(=O)c1cc2nccc(Oc3cccc(C(=O)Nc4cc(C)ccc4F)c3)c2s1 [Example 85, N-ethyl-7-(3-{[(2-fluoro-5-methylphenyl)amino]carbonyl}phenoxy)thieno[3,2-b]pyridine-2-carboxamide] | 10 nM | – | 74 nM | 16 nM |
| CCN(CC)C(=O)c1cc2nccc(Oc3cccc(C(=O)Nc4cc(C)ccc4F)c3)c2s1 [Example 86, N,N-diethyl-7-(3-{[(2-fluoro-5-methylphenyl)amino]carbonyl}phenoxy)thieno[3,2-b]pyridine-2-carboxamide] | 7 nM | – | 206 nM | 64 nM |
| COC(=O)CNCCCNC(=O)c1cc2nccc(Oc3cccc(C(=O)Nc4cc(C)ccc4F)c3)c2s1 [Example 87, Methyl {[3-({[7-(3-{[(2-fluoro-5-methylphenyl)amino]carbonyl}phenoxy)thieno[3,2-b]pyridin-2-yl]carbonyl}amino)propyl]amino}acetate] | 16 nM | – | 59 nM | 9 nM |
